US20230077362A1 (CORTEVA AGRISCIENCE LLC, priority 2019, published 2023)
Read-outs that look alike come from different tables or passages of the source.

Columns and labels:
[1] = test system: Beet Armyworm (Spodoptera exigua) ("BAW"), second instar larvae; assay: Bioassay on beet armyworm (BAW), 128-well diet tray assay; assay type: in vivo; settings: for pest or weed control at 50 µg/cm2: Spodoptera exigua; for BAW rating: Table ABC, species BAW, C = not tested, D = no activity noticed
Outline: (§1)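 Sealed trays, 25° C., 14:10 light:dark, 5–7 d. Per-well % mortality recorded, mean of eight wells reported.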

[2] = test system: Cabbage Looper (Trichoplusia ni) ("CL"), second instar larvae; assay: Bioassay on cabbage looper (CL), 128-well diet tray assay; assay type: in vivo; settings: for pest or weed control at 50 µg/cm2: Trichoplusia ni; for CL rating: Table ABC, species CL, C = not tested, D = no activity noticed
Outline: as §1

[3] = read-out: BAW (Biological Results, rating)
[4] = read-out: CL (Biological Results, rating)

| SMILES | pest or weed control at 50 µg/cm2 [1, 3] [%] | pest or weed control at 50 µg/cm2 [2, 4] [%] | further results |
| --- | --- | --- | --- |
| CC(C)c1ccc(N(C)C)cc1N1C(=O)CS/C1=N\C(=O)Nc1ccc(-c2cn(-c3ccc(OC(F)(F)F)cc3)cn2)cc1 [Compound J529, (Z)-1-(3-(5-(Dimethylamino)-2-isopropylphenyl)-4-oxothiazolidin-2-ylidene)-3-(4-(1-(4-(trifluoromethoxy)phenyl)-1H-imidazol-4-yl)phenyl)urea] | – | – | pest or weed control at 50 µg/cm2 ([1]; read-out: BAW rating): 50 to 100%; pest or weed control at 50 µg/cm2 ([2]; read-out: CL rating): 50 to 100% |
| CCOC(C)c1ccc(C)cc1N1C(=O)CS/C1=N\C(=O)Nc1ccc(-c2cn(-c3ccc(OC(F)(F)F)cc3)cn2)cc1C (stereo not shown) [Compound J486, (Z)-1-(3-(2-(1-Ethoxyethyl)-5-methylphenyl)-4-oxothiazolidin-2-ylidene)-3-(2-methyl-4-(1-(4-(trifluoromethoxy)phenyl)-1H-imidazol-4-yl)phenyl)urea] | – | – | pest or weed control at 50 µg/cm2 ([1]; read-out: BAW rating): 50 to 100%; pest or weed control at 50 µg/cm2 ([2]; read-out: CL rating): 50 to 100% |
| COCc1ccc(C)cc1N1C(=O)CS/C1=N\C(=O)Nc1ccc(-c2ncn(-c3ccc(OC(F)(F)F)cc3)n2)cc1C [Compound J67, (Z)-1-(3-(2-(Methoxymethyl)-5-methylphenyl)-4-oxothiazolidin-2-ylidene)-3-(2-methyl-4-(1-(4-(trifluoromethoxy)phenyl)-1H-1,2,4-triazol-3-yl)phenyl)urea] | 50 to 100 | 50 to 100 | – |
| Cc1cc(COCC(F)(F)F)c(N2C(=O)CS/C2=N\C(=O)Nc2ccc(-c3ncn(-c4ccc(C(F)(F)F)cc4)n3)cc2F)cc1C [Compound J660] | – | – | BAW rating [1]: A (50-100); CL rating [2]: A (50-100) |
| Cc1ccc(C(C)C)c(N2C(=O)CS/C2=N\C(=O)Nc2ccc(-c3ncn(-c4ccc(OC(F)(F)C(F)(F)F)cc4)n3)cc2C)c1 [Compound J24, (Z)-1-(3-(2-Isopropyl-5-methylphenyl)-4-oxothiazolidin-2-ylidene)-3-(2-methyl-4-(1-(4-(perfluoroethoxy)phenyl)-1H-1,2,4-triazol-3-yl)phenyl)urea] | 50 to 100 | 50 to 100 | – |
| COc1ccc(-n2cnc(-c3ccc(NC(=O)/N=C4\SCC(=O)N4c4cc(C)ccc4OCCC(F)(F)F)c(F)c3)n2)cc1 [Compound J147, (Z)-1-(2-Fluoro-4-(1-(4-methoxyphenyl)-1H-1,2,4-triazol-3-yl)phenyl)-3-(3-(5-methyl-2-(3,3,3-trifluoropropoxy)phenyl)-4-oxothiazolidin-2-ylidene)urea] | 50 to 100 | 50 to 100 | – |
| CCCc1ccc(C)cc1N1C(=O)CS/C1=N\C(=O)Nc1ccc(-c2ncn(-c3ccc(OC(F)(F)C(F)(F)F)cc3)n2)c(C)c1 [Compound J12, (Z)-1-(3-(5-Methyl-2-propylphenyl)-4-oxothiazolidin-2-ylidene)-3-(3-methyl-4-(1-(4-(perfluoroethoxy)phenyl)-1H-1,2,4-triazol-3-yl)phenyl)urea] | 50 to 100 | 50 to 100 | – |
| O=C(/N=C1\SCC(=O)N1c1ccccc1C(F)(F)F)Nc1ccc(-c2ncn(-c3ccc(OC(F)(F)F)cc3)n2)cc1 [Compound H10] | 50 to 100 | 50 to 100 | – |
| COC(C)c1ccc(C)cc1N1C(=O)CS/C1=N\C(=O)Nc1ccc(-c2ncn(-c3ccc(C(F)(F)F)cn3)n2)cc1C (stereo not shown) [Compound J286, (Z)-1-(3-(2-(1-Methoxyethyl)-5-methylphenyl)-4-oxothiazolidin-2-ylidene)-3-(2-methyl-4-(1-(5-(trifluoromethyl)pyridin-2-yl)-1H-1,2,4-triazol-3-yl)phenyl)urea] | 50 to 100 | 50 to 100 | – |
| COC(C)c1ccc(C)cc1N1C(=O)CS/C1=N\C(=O)Nc1ccc(-c2ncn(-c3ccc(OCC#N)cc3)n2)cc1F (stereo not shown) [Compound J340, (Z)-1-(4-(1-(4-(Cyanomethoxy)phenyl)-1H-1,2,4-triazol-3-yl)-2-fluorophenyl)-3-(3-(2-(1-methoxyethyl)-5-methylphenyl)-4-oxothiazolidin-2-ylidene)urea] | 50 to 100 | 50 to 100 | – |
| Cc1ccc(C(C)C)c(N2C(=O)CS/C2=N\C(=O)Nc2ccc(-c3ncn(-c4ccc(OC(F)(F)F)cc4)n3)cc2Br)c1 [Compound J217, (Z)-1-(2-Bromo-4-(1-(4-(trifluoromethoxy)phenyl)-1H-1,2,4-triazol-3-yl)phenyl)-3-(3-(2-isopropyl-5-methylphenyl)-4-oxothiazolidin-2-ylidene)urea] | 50 to 100 | 50 to 100 | – |
| Cc1ccc(COCC(F)(F)F)c(N2C(=O)CS/C2=N\C(=O)Nc2ccc(-c3ccn(-c4ccc(C(F)(F)F)cn4)n3)cc2C)c1 [Compound J310, (Z)-1-(3-(5-Methyl-2-((2,2,2-trifluoroethoxy)methyl)phenyl)-4-oxothiazolidin-2-ylidene)-3-(2-methyl-4-(1-(5-(trifluoromethyl)pyridin-2-yl)-1H-pyrazol-3-yl)phenyl)urea] | 50 to 100 | 50 to 100 | – |
| Cc1ccc(COCC(F)F)c(N2C(=O)CS/C2=N\C(=O)Nc2ccc(-n3cnc(-c4ccc(C(F)(F)F)cc4)n3)cc2F)c1 [Compound J701, (Z)-1-(3-(2-((2,2-Difluoroethoxy)methyl)-5-methylphenyl)-4-oxothiazolidin-2-ylidene)-3-(2-fluoro-4-(3-(4-(trifluoromethyl)phenyl)-1H-1,2,4-triazol-1-yl)phenyl)urea] | – | – | pest or weed control at 50 µg/cm2 ([1]; read-out: BAW rating): 50 to 100%; pest or weed control at 50 µg/cm2 ([2]; read-out: CL rating): 50 to 100% |
| COc1ccc(C(C)C)c(N2C(=O)CS/C2=N\C(=O)Nc2ccc(-c3ncn(-c4ccc(OC(F)(F)F)cc4)n3)cc2C#N)c1 [Compound J246, (Z)-1-(2-Cyano-4-(1-(4-(trifluoromethoxy)phenyl)-1H-1,2,4-triazol-3-yl)phenyl)-3-(3-(2-isopropyl-5-methoxyphenyl)-4-oxothiazolidin-2-ylidene)urea] | 50 to 100 | 50 to 100 | – |
| Cc1ccc(C(C)C)c(N2C(=O)CS/C2=N\C(=O)Nc2ccc(-n3cnc(-c4ccc(OC(F)(F)F)cc4)n3)cc2Cl)c1 [Compound J728, (Z)-1-(2-Chloro-4-(3-(4-(trifluoromethoxy)phenyl)-1H-1,2,4-triazol-1-yl)phenyl)-3-(3-(2-isopropyl-5-methylphenyl)-4-oxothiazolidin-2-ylidene)urea] | – | – | pest or weed control at 50 µg/cm2 ([1]; read-out: BAW rating): 50 to 100%; pest or weed control at 50 µg/cm2 ([2]; read-out: CL rating): 50 to 100% |
| COc1cc(-c2ncn(-c3ccc(OC(F)(F)F)cc3)n2)ccc1NC(=O)/N=C1\SCC(=O)N1c1cc(C)ccc1OCCC(F)(F)F [Compound J91, (Z)-1-(2-Methoxy-4-(1-(4-(trifluoromethoxy)phenyl)-1H-1,2,4-triazol-3-yl)phenyl)-3-(3-(5-methyl-2-(3,3,3-trifluoropropoxy)phenyl)-4-oxothiazolidin-2-ylidene)urea] | 50 to 100 | 50 to 100 | – |
| Cc1ccc(CC(F)(F)F)c(N2C(=O)CS/C2=N\C(=O)NCCc2ccc(-c3ncn(-c4ccc(OC(F)(F)F)cc4)n3)cc2)c1 [Compound H12] | 50 to 100 | 50 to 100 | – |
| Cc1ccc(COCC(F)(F)Cl)c(N2C(=O)CS/C2=N\C(=O)Nc2ccc(-c3ncn(-c4ccc(S(F)(F)(F)(F)F)cc4)n3)cc2F)c1 [Compound J449] | – | – | BAW rating [1]: A (50-100); CL rating [2]: A (50-100) |
| COc1ccc(COCC(F)(F)F)c(N2C(=O)CS/C2=N\C(=O)Nc2ccc(-n3cnc(-c4ccc(C(F)(F)F)cc4)n3)cc2F)c1 [Compound J700, (Z)-1-(2-Fluoro-4-(3-(4-(trifluoromethyl)phenyl)-1H-1,2,4-triazol-1-yl)phenyl)-3-(3-(5-methoxy-2-((2,2,2-trifluoroethoxy)methyl)phenyl)-4-oxothiazolidin-2-ylidene)urea] | – | – | pest or weed control at 50 µg/cm2 ([1]; read-out: BAW rating): 50 to 100%; pest or weed control at 50 µg/cm2 ([2]; read-out: CL rating): 50 to 100% |
| Cc1ccc(C(C)C)c(N2C(=O)CS/C2=N\C(=O)Nc2ccc(-c3ncn(-c4ccc(C(F)(F)F)cn4)n3)cc2C)c1 [Compound J284, (Z)-1-(3-(2-Isopropyl-5-methylphenyl)-4-oxothiazolidin-2-ylidene)-3-(2-methyl-4-(1-(5-(trifluoromethyl)pyridin-2-yl)-1H-1,2,4-triazol-3-yl)phenyl)urea] | 50 to 100 | 50 to 100 | – |
| Cc1ccc(OCCC(F)(F)F)c(N2C(=O)CS/C2=N\C(=O)Nc2ccc(-c3ncn(-c4ccc(OC(F)(F)F)cc4)n3)cc2C)c1 [Compound J56, (Z)-1-(3-(5-Methyl-2-(3,3,3-trifluoropropoxy)phenyl)-4-oxothiazolidin-2-ylidene)-3-(2-methyl-4-(1-(4-(trifluoromethoxy)phenyl)-1H-1,2,4-triazol-3-yl)phenyl)urea] | 50 to 100 | 50 to 100 | – |
| Cc1ccc(C(C)C)c(N2C(=O)CS/C2=N\C(=O)Nc2ccc(-c3ncn(-c4ccc(C(F)(F)F)cn4)n3)cc2)c1 [Compound J337, (Z)-1-(3-(2-Isopropyl-5-methylphenyl)-4-oxothiazolidin-2-ylidene)-3-(4-(1-(5-(trifluoromethyl)pyridin-2-yl)-1H-1,2,4-triazol-3-yl)phenyl)urea] | 50 to 100 | 50 to 100 | – |
| COCc1ccc(N(C)C)cc1N1C(=O)CS/C1=N\C(=O)Nc1ccc(-c2nnc(-c3ccc(OC(F)(F)F)cc3)o2)cc1F [Compound J612, (Z)-1-(3-(5-(Dimethylamino)-2-(methoxymethyl)phenyl)-4-oxothiazolidin-2-ylidene)-3-(2-fluoro-4-(5-(4-(trifluoromethoxy)phenyl)-1,3,4-oxadiazol-2-yl)phenyl)urea] | – | – | pest or weed control at 50 µg/cm2 ([1]; read-out: BAW rating): 50 to 100%; pest or weed control at 50 µg/cm2 ([2]; read-out: CL rating): 50 to 100% |
